Source: PubChem BioAssay AID248 (DTP/NCI, 2004)
Inconclusive results and toxic doses are left out.

Tested on: L1210 leukemia ip in BDF1 mice, survival T/C
Assay: NCI In Vivo Anticancer Drug Screen. Data for tumor model L1210 Leukemia (intraperitoneal) in B6D2F1 (BDF1) mice
Conditions: higher = longer survival
Procedure, shortened: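 Transplantable tumor model; survival measured in treated vs vehicle control mice. Value = treated/control.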

[1] = endpoint: mean survival time, dose: 100.0 mg/kg/injection, schedule: Q01DX001 (ip), vehicle: saline
[2] = endpoint: mean survival time, dose: 200.0 mg/kg/injection, schedule: Q01DX001 (ip), vehicle: saline
[3] = endpoint: mean survival time, dose: 400.0 mg/kg/injection, schedule: Q01DX001 (ip), vehicle: saline
[4] = endpoint: mean survival time, dose: 100.0 mg/kg/injection, schedule: Q04DX003 (ip), vehicle: saline with Tween-80
[5] = endpoint: mean survival time, dose: 200.0 mg/kg/injection, schedule: Q04DX003 (ip), vehicle: saline with Tween-80
[6] = endpoint: mean survival time, dose: 400.0 mg/kg/injection, schedule: Q04DX003 (ip), vehicle: saline with Tween-80

## C/C=C1/C(=O)O[C@]23C=C[C@@H]4C(C(=O)OC)=CO[C@H](O[C@@H]12)[C@@H]43
[1]
  T/C: 104 % of control
[2]
  T/C: 103 % of control
[3]
  T/C: 98 % of control

## C=CCNC(=O)C[n+]1cccc(C(=O)NC)c1
[1]
  T/C: 106 % of control
[2]
  T/C: 103 % of control
[3]
  T/C: 97 % of control

## CCN(CC)CCN1C(=O)c2cccc3cccc(c23)C1=O
endpoint: mean survival time, dose: 10.5 mg/kg/injection, schedule: Q03HX024 (ip), vehicle: saline
  T/C: 102 % of control
endpoint: mean survival time, dose: 15.7 mg/kg/injection, schedule: Q03HX024 (ip), vehicle: saline
  T/C: 98 % of control
endpoint: mean survival time, dose: 23.4 mg/kg/injection, schedule: Q03HX024 (ip), vehicle: saline
  T/C: 99 % of control
endpoint: mean survival time, dose: 34.8 mg/kg/injection, schedule: Q03HX024 (ip), vehicle: saline
  T/C: 111 % of control
endpoint: mean survival time, dose: 52.0 mg/kg/injection, schedule: Q03HX024 (ip), vehicle: saline
  T/C: 165 % of control
endpoint: mean survival time, dose: 96.0 mg/kg/injection, schedule: Q01DX009 (ip), vehicle: saline
  T/C: 111 % of control
endpoint: mean survival time, dose: 96.0 mg/kg/injection, schedule: Q03HX024 (ip), vehicle: saline
  T/C: 96 % of control
endpoint: mean survival time, dose: 105.0 mg/kg/injection, schedule: Q01DX001 (ip), vehicle: saline
  T/C: 103 % of control
endpoint: mean survival time, dose: 105.0 mg/kg/injection, schedule: Q04DX003 (ip), vehicle: saline
  T/C: 100 % of control
endpoint: mean survival time, dose: 157.0 mg/kg/injection, schedule: Q01DX001 (ip), vehicle: saline
  T/C: 100 % of control
endpoint: mean survival time, dose: 157.0 mg/kg/injection, schedule: Q04DX003 (ip), vehicle: saline
  T/C: 110 % of control

## Cc1ccc(NC(=O)C(Cl)(Cl)Cl)cc1Cl
endpoint: mean survival time, dose: 100.0 mg/kg/injection, schedule: Q01DX009 (ip), vehicle: Klucel (hydroxypropylcellulose) (HPC)
  T/C: 112 % of control
endpoint: mean survival time, dose: 200.0 mg/kg/injection, schedule: Q01DX009 (ip), vehicle: Klucel (hydroxypropylcellulose) (HPC)
  T/C: 106 % of control
endpoint: mean survival time, dose: 400.0 mg/kg/injection, schedule: Q01DX009 (ip), vehicle: Klucel (hydroxypropylcellulose) (HPC)
  T/C: 109 % of control

## CCOC(=O)c1nc2cc(C)c(C)cc2[nH]c1=O
[4]
  T/C: 92 % of control
[5]
  T/C: 99 % of control
[6]
  T/C: 93 % of control

## c1ccc2c(c1)CCC1C3CCCC3OCN21 (stereo not given)
endpoint: mean survival time, dose: 50.0 mg/kg/injection, schedule: Q04DX002 (ip), vehicle: saline with Tween-80
  T/C: 101 % of control
endpoint: mean survival time, dose: 100.0 mg/kg/injection, schedule: Q04DX002 (ip), vehicle: saline with Tween-80
  T/C: 101 % of control
endpoint: mean survival time, dose: 200.0 mg/kg/injection, schedule: Q04DX002 (ip), vehicle: saline with Tween-80
  T/C: 104 % of control

## CCC(C)(C)C(=O)Nc1cccc(O)c1
[4]
  T/C: 92 % of control
[5]
  T/C: 90 % of control
[6]
  T/C: 95 % of control

## Cc1ccc2nc(N=C(N)N)[nH]c2c1
endpoint: mean survival time, dose: 75.0 mg/kg/injection, schedule: Q01DX001 (ip), vehicle: saline
  T/C: 93 % of control
endpoint: mean survival time, dose: 150.0 mg/kg/injection, schedule: Q01DX001 (ip), vehicle: saline
  T/C: 94 % of control

## COC(=O)c1ccc(N=NN(C)C)cc1
endpoint: median survival time, dose: 65.0 mg/kg/injection, schedule: Q01DX001 (ip), vehicle: steriod suspending solution
  T/C: 100 % of control
endpoint: median survival time, dose: 108.0 mg/kg/injection, schedule: Q01DX001 (ip), vehicle: steriod suspending solution
  T/C: 110 % of control
endpoint: median survival time, dose: 108.0 mg/kg/injection, schedule: Q01DX009 (ip), vehicle: steriod suspending solution
  T/C: 100 % of control
endpoint: median survival time, dose: 180.0 mg/kg/injection, schedule: Q01DX001 (ip), vehicle: steriod suspending solution
  T/C: 110 % of control
endpoint: median survival time, dose: 180.0 mg/kg/injection, schedule: Q04DX003 (ip), vehicle: steriod suspending solution
  T/C: 150 % of control

## NNc1c(F)c(F)c(NN)c(F)c1F
endpoint: mean survival time, dose: 6.25 mg/kg/injection, schedule: Q04DX003 (ip), vehicle: Klucel (hydroxypropylcellulose) (HPC)
  T/C: 96 % of control
endpoint: mean survival time, dose: 12.5 mg/kg/injection, schedule: Q04DX003 (ip), vehicle: Klucel (hydroxypropylcellulose) (HPC)
  T/C: 93 % of control
endpoint: mean survival time, dose: 25.0 mg/kg/injection, schedule: Q04DX003 (ip), vehicle: Klucel (hydroxypropylcellulose) (HPC)
  T/C: 95 % of control

## CC(O)(CC(c1ccccc1)N1CCc2ccccc2C1)c1ccccc1 (stereo not given)
endpoint: mean survival time, dose: 100.0 mg/kg/injection, schedule: Q04DX003 (ip), vehicle: saline
  T/C: 105 % of control
endpoint: mean survival time, dose: 200.0 mg/kg/injection, schedule: Q04DX003 (ip), vehicle: saline
  T/C: 102 % of control
endpoint: mean survival time, dose: 400.0 mg/kg/injection, schedule: Q04DX003 (ip), vehicle: saline
  T/C: 96 % of control

## CCOC(Nc1ccccc1[N+](=O)[O-])C(=O)c1ccccc1 (stereo not given)
[1]
  T/C: 91 % of control
[2]
  T/C: 86 % of control
[3]
  T/C: 89 % of control
